Our source for the IC50 values is patent US20070179161A1, “Pyrazolopyrimidine compounds and their use in medicine” (VERNALIS (CAMBRIDGE) LIMITED., priority 2003, published 2007).

pIC50: −log10 of the molar value. Where only a bound is given, the exact number is not on record here.

Holding throughout (assay type): biochemical
The target of one assay is T1, GST-Chk1 enzyme (Homo sapiens, UniProt O14757).
T1 sequence (O14757 1-476): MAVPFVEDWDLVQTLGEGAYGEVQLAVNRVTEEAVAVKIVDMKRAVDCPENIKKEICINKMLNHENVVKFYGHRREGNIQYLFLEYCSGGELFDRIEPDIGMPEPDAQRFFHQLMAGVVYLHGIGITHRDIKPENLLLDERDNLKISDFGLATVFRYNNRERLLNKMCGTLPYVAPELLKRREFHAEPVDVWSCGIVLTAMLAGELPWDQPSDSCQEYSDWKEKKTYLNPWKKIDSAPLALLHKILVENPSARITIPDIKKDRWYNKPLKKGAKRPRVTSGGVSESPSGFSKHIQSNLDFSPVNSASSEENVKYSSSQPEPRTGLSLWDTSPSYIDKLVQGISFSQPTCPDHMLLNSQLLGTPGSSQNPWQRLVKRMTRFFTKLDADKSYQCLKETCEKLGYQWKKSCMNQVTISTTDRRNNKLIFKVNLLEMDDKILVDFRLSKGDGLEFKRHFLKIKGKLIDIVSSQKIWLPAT
Kind of assay: Chk1 kinase inhibition assay (33P phosphorylation of Chktide, filter plate). To be noted: 0.01 mM ATP, 11 nM GST-Chk1, 40 minutes at 30° C.; read-out: Chk1 IC50. As for the experimental part: The assay mixture containing the inhibitor and Chk1 enzyme was mixed together in a microtiter plate in a final volume of 50 μl and incubated for 40 minutes at 30° C.
The reaction was stopped by adding 50 μl of 50 mM phosphoric acid. 90 μl of the mixture was transferred to a pre-wetted 96-well Multiscreen MAPHNOB filtration plate (Millipore) and filtered on a vacuum manifold. […] The filtration plate was dried for 10 min at 65° C., scintillant added and phosphorylated peptide quantified in a scintillation counter (Trilux, PerkinElmer)

The target of assay [1] is CDK-2 enzyme, complexed with cyclin A (Homo sapiens, UniProt P24941). Kind of assay: CDK2 enzyme inhibition assay (33P phosphorylation of peptide […], filter plate). To be noted: CDK-2/cyclin A, 0.1 mM ATP, 40 min at 30° C. As for the experimental part:
(§1) The assay mixture containing the inhibitor and CDK-2 enzyme, complexed with cyclin A (0.4 U/ml) was mixed together in a microtiter plate in a final volume of 50 μl and incubated for 40 min at 30° C. The assay mixture contained 0.1 mM unlabeled ATP, 0.01 μCi/μl ^33P-γ-ATP, 0.03 mM peptide, 0.1 mg/ml BSA, 7.5 mM magnesium acetate, 50 mM HEPES-NaOH, pH 7.5. The reaction was stopped by adding 50 μl of 50 mM phosphoric acid. 90 μl of the mixture were transferred to a pre-wetted 96-well Multiscreen MAPHNOB filtration plate (Millipore) and filtered on a vacuum manifold. […] The filtration plate was dried for 10 min at 65° C., scintillant added and phosphorylated peptide quantified in a scintillation counter (Trilux, PerkinElmer)
HEPES is N-[2-Hydroxyethyl]piperazine-N′-[2-ethanesulfonic acid] BSA is bovine serum albumin.

A further assay has as its target T2, PDK1 enzyme (Homo sapiens, UniProt O15530).
T2 sequence (O15530 1-556): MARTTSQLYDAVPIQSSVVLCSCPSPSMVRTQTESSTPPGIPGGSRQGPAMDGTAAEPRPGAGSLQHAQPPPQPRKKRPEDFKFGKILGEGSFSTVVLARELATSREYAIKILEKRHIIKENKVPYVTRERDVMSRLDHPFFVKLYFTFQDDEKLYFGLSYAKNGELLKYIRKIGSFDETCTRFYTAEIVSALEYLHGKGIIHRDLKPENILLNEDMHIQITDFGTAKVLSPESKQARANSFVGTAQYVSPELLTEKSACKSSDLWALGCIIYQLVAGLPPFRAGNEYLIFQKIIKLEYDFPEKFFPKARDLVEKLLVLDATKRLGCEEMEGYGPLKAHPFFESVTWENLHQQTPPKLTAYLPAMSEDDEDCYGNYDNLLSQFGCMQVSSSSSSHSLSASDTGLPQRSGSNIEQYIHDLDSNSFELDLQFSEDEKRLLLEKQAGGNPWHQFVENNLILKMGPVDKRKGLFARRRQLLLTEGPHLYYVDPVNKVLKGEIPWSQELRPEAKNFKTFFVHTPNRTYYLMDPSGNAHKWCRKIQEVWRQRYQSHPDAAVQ
Kind of assay: PDK1 kinase inhibition assay (33P phosphorylation of synthetic peptide, filter plate). The note with it: 0.01 mM ATP, 60 min at 30° C.; read-out: PDK1 IC50. As for the experimental part:
as §1, with “and PDK1 enzyme” for “and CDK-2 enzyme, complexed with cyclin A (0.4 U/ml)”, “for 60” for “for 40”, “contained 0.01” for “contained 0.1”, “^33P-γ-ATP, 0.075” for “^33P-γ-ATP, 0.03”, “acetate, 0.05M Tris.HCl,” for “acetate, 50 mM HEPES-NaOH,”, “pH 7.5, 0.5% 2-mercaptoethanol.” for “pH 7.5.”

Turning to `COCCNS(=O)(=O)c1ccc(Nc2cc(Cl)nc3c(C(C)C)cnn23)cc1` [Example 36], the figures for the pIC50 (on GST-Chk1 enzyme; in assay [1]; at PDK1 enzyme) were less than 3.70, 6.15 and less than 3.70, respectively.
Consider `CCCN(CCC)[C@H]1CC[C@H](Nc2cc(Nc3ccc(S(=O)(=O)N(C)C)cc3)n3ncc(C(C)C)c3n2)CC1` [Example 125], for which the figures for the pIC50 (at GST-Chk1 enzyme; in assay [1]; at PDK1 enzyme) were 4.69, 6.81 and 4.70, respectively.
The matching figures for `CC(C)c1cnn2c(Nc3ccc(S(=O)(=O)N(C)C)cc3)cc(O[C@H]3CC[C@H](N)CC3)nc12` [Example 114]: 5.46, 7.77 and 3.90.
For `CS(=O)(=O)c1ccc(Nc2cc(OC3CCCCC3)nc3ccnn23)cc1` [Example 21], in that order: less than 3.70, 5.88 and less than 3.70.
The matching figures for `CCc1cnn2c(Nc3ccc(S(C)(=O)=O)cc3)cc(N(C)C)nc12` [Example 45]: less than 3.70, 5.95 and less than 3.70.
Take `CCc1cnn2c(Nc3ccc(S(=O)(=O)N(C)C)cc3)cc(N[C@H]3CC[C@H](N)CC3)nc12` [Example 57]: the pIC50 at GST-Chk1 enzyme was 5.58; in assay [1] it was 7.16; at PDK1 enzyme it was 5.61.
Consider `CC(C)c1cnn2c(Nc3ccc(S(=O)(=O)N4CCCC4)cc3)cc(N[C@H]3CC[C@H](N)CC3)nc12` [Example 62], for which the pIC50 was 5.49 on GST-Chk1 enzyme, 7.62 in assay [1] and 5.92 at PDK1 enzyme.
For `COc1cc(Nc2ccc(S(=O)(=O)N(C)C)cc2)n2ncc(C(C)C)c2n1` [Example 66], in that order: less than 3.70, 6.06 and less than 3.70.
`CN(C)S(=O)(=O)c1ccc(Nc2cc(N[C@H]3CC[C@H](N)CC3)nc3c(C4CC4)cnn23)cc1` [Example 128]: the pIC50 at GST-Chk1 enzyme is 5.99; in assay [1], 7.66; on PDK1 enzyme, 6.75.
For `O=S(=O)(c1ccc(Nc2cc(Cl)nc3ccnn23)cc1)N1CCOCC1` [Example 9], in that order: less than 3.70, 6.00 and less than 3.70.
For `CN(C)S(=O)(=O)c1ccc(Nc2cc(N[C@H]3CC[C@H](N)CC3)nc3c(C4CCCC4)cnn23)cc1` [Example 167], in that order: 6.14, 8.40 and 3.77.
As to `Cc1noc(C)c1-c1cc(Nc2ccc(F)cc2)n2nccc2n1` [Example 2, 5-(3,5-Dimethylisoxazole)-7-(4-fluorophenylamino)pyrazolo[1,5-a]pyrimidine], the pIC50 at GST-Chk1 enzyme was less than 3.70; in assay [1], 4.87; at PDK1 enzyme, less than 3.70.
As to `CCN(CC)[C@H]1CC[C@H](Nc2cc(Nc3ccc(S(=O)(=O)N(C)C)cc3)n3ncc(C(C)C)c3n2)CC1` [Example 100], the figures for the pIC50 (on GST-Chk1 enzyme; in assay [1]; at PDK1 enzyme) were 4.53, 7.04 and 4.52, respectively.
For `CC(C)c1cnn2c(Nc3ccc(S(=O)(=O)N(C)C)cc3)cc(NC3CCN(C)CC3)nc12` [Example 69], in that order: 4.72, 6.74 and 4.50.
The matching figures for `CCc1cnn2c(Nc3ccc(S(C)(=O)=O)cc3)cc(Cl)nc12` [Example 43]: less than 3.70, 6.97 and less than 3.70.
For `CC(C)c1cnn2c(Nc3ccc(S(=O)(=O)N(C)C)cc3)cc(N3CCCC(CN(C)C)C3)nc12` (stereo not drawn) [Example 89], in that order: less than 3.70, 5.08 and less than 3.70.
For the molecule `CC[C@H](CO)Nc1cc(Nc2ccc(S(=O)(=O)N(C)C)cc2)n2ncc(C(C)C)c2n1` [Example 83], the negative logarithm of the IC50 (pIC50) was less than 3.70 at GST-Chk1 enzyme, 6.85 in assay [1] and less than 3.70 at PDK1 enzyme.
For the molecule `CC(C)c1cnn2c(Nc3ccc(S(=O)(=O)N(C)C)cc3)cc(N[C@H]3CC[C@H](NC(=O)CN(C)C)CC3)nc12` [Example 86], the negative-log IC50 (pIC50) is less than 3.70 at GST-Chk1 enzyme, 7.52 in assay [1] and less than 3.70 on PDK1 enzyme.
Turning to `CC(C)c1cnn2c(Nc3ccc(S(C)(=O)=O)cc3)cc(OCCN(C)C)nc12` [Example 53], the values for the pIC50 (at GST-Chk1 enzyme; in assay [1]; at PDK1 enzyme) were less than 3.70, 5.07 and less than 3.70, respectively.
On to `CCNc1cc(Nc2ccc(S(=O)(=O)N(C)C)cc2)n2ncc(C(C)C)c2n1` [Example 108], for which the results for the pIC50 (on GST-Chk1 enzyme; in assay [1]; at PDK1 enzyme) were less than 3.70, 5.50 and less than 3.70, respectively.
With `CC(C)c1cnn2c(Nc3ccc(S(=O)(=O)N(C)C)cc3)cc(CN3CCC(N)CC3)nc12` [Example 157], the pIC50 at GST-Chk1 enzyme is 5.10; in assay [1] it was 7.43; on PDK1 enzyme it was 4.14.
For `CC(C)c1cnn2c(Nc3ccc(S(=O)(=O)N(C)C)cc3)cc(NCCN)nc12` [Example 98], in that order: 4.73, 5.12 and less than 3.70.
For `CC(C)c1cnn2c(Nc3ccc(S(=O)(=O)NCC4CCCO4)cc3)cc(Cl)nc12` (stereo not drawn) [Example 35], in that order: less than 3.70, 6.72 and less than 3.70.
Take `CC(C)c1cnn2c(Nc3ccc(S(=O)(=O)N(C)C)cc3)cc(NCC3CCNCC3)nc12` [Example 80]: the values for the pIC50 (on GST-Chk1 enzyme; in assay [1]; on PDK1 enzyme) were less than 3.70, 6.17 and 5.59, respectively.
The matching figures for `NS(=O)(=O)c1ccc(Nc2cc(OC3CCCCC3)nc3ccnn23)cc1` [Example 22]: less than 3.70, 6.52 and 4.15.
The matching figures for `CC(C)c1cnn2c(Nc3ccc(S(C)(=O)=O)cc3)cc(N(C)CCN(C)C)nc12` [Example 58]: 4.29, 5.71 and less than 3.70.
For `CC(=O)N[C@H]1CC[C@H](Nc2cc(Nc3ccc(S(=O)(=O)N(C)C)cc3)n3ncc(C(C)C)c3n2)CC1` [Example 79], in that order: less than 3.70, 7.18 and less than 3.70.
For the molecule `CC(C)c1cnn2c(Nc3ccc(S(=O)(=O)N(C)C)cc3)cc(NC3CCCCC3)nc12` [Example 63], the pIC50 was less than 3.70 on GST-Chk1 enzyme, 6.45 in assay [1] and less than 3.70 on PDK1 enzyme.
As for `CC(C)c1cnn2c(Nc3ccc(S(C)(=O)=O)nc3)cc(N[C@H]3CC[C@H](N)CC3)nc12` [Example 107], the negative-log IC50 (pIC50) is 4.71 on GST-Chk1 enzyme, 7.00 in assay [1] and 4.02 on PDK1 enzyme.
For `CNS(=O)(=O)c1ccc(Nc2cc(N[C@H]3CC[C@H](N)CC3)nc3c(C(C)C)cnn23)cc1` [Example 67], in that order: less than 3.70, 7.52 and 5.33.
